Assay results taken from patent US11304944B2, “MetAP2 inhibitors and methods of treating obesity” (SynDevRx, Inc., priority 2013, dated 2022).

Tests used:
DIO C57Bl6 mice [1] = experiment: Efficacy of various compounds in DIO mouse model (body weight versus time); type: in vivo; details: 2 mg/kg q4d sc; for BW change vs. vehicle: day 26
Description: On study day 1 animals were randomized into groups so that the average weight of the mice in each group was 47 g. The mice were treated with either phosphate buffered saline (vehicle), or compounds as listed in Table 19 dissolved in vehicle (dorsal, subcutaneous administration).

DIO C57Bl6 mice [2] = experiment: In vivo testing DIO C57Bl6 mice: weight changes, food consumption, body composition (Compound 16 vs TNP-470)
Description: C57Bl6 male mice (N=6) thirteen weeks old with an average of weight of 34 g were ad libitum fed TD.06414 a high fat diet composed of 60% Kcal from fat (Harlan diet). On study day 1 animals were randomized into groups so that the average weight of each group was 33.9 g. […] Animals were weighed every other day. Food consumption was measured weekly. On day 33 gross pathology was performed to determine body composition.

[3] = in combination with paclitaxel, dosed three times per week; cited from earlier work
[4] = qod (Cmpd 16 1 mg/kg qod), Day 33

Compound	Group Avg. BW, Study Day 1 (DIO C57Bl6 mice [1])	Group Avg. BW, Study Day 7 (DIO C57Bl6 mice [1])	Group Avg. BW, Study Day 15 (DIO C57Bl6 mice [1])	Group Avg. BW, Study Day 21 (DIO C57Bl6 mice [1])	Group Avg. BW, Study Day 26 (DIO C57Bl6 mice [1])	BW change vs. vehicle (DIO C57Bl6 mice [1])	Body Weight Day 33 (DIO C57Bl6 mice [2]; 0.5 mg/kg/day, qod, sc)	B.W. (DIO C57Bl6 mice [2]; [4])	Epididymal Fat (DIO C57Bl6 mice [2]; [4])	Inguinal Fat (DIO C57Bl6 mice [2]; [4])	Liver (DIO C57Bl6 mice [2]; [4])	Retroperitoneal Fat (DIO C57Bl6 mice [2]; [4])	Total Fat (DIO C57Bl6 mice [2]; [4])	MTD [3]
poly[HPMA-co-MA-GFLG-NH-2-[(2-(2-aminoethoxy)ethoxy)ethyl]carbamoylfumagillol] [Compound bb]	47.0 g	43.6 g	43.9 g	42.2 g	42.5 g	−7.8%	–	–	–	–	–	–	–	–
CO[C@@H]1[C@H](OC(=O)NC(=O)CCl)CC[C@]2(CO2)[C@H]1[C@@]1(C)O[C@@H]1CC=C(C)C [TNP-470, chloroacetylcarbamoylfumagillol, reference compound]	–	–	–	–	–	–	34.1 g	34.1 grams	1.54 grams	1.21 grams	1.15 grams	0.80 grams	3.55 grams	60 mg/m2
poly[HPMA-co-MA-GFLG-N-(cis-4-aminocyclohexyl)carbamoylfumagillol] [Compound cis-16]	47.0 g	42.7 g	42.6 g	40.9 g	40.6 g	−12.0%	–	–	–	–	–	–	–	–
